Laboratory results from patent publication US20090044291A1, “DROUGHT-RESISTANT PLANTS AND METHOD FOR PRODUCING THE PLANTS” (D-Helix, priority 2006, published 2009).
“Also recorded” adds a separate entry of the source.

Tests used:
[1] = target: T1, Arabidopsis ABAR/CHLH (H subunit of Mg-chelatase) (Arabidopsis thaliana, UniProt Q9FNB0); assay: ABA binding assay with purified yeast-expressed ABAR/CHLH
T1 construct: 6xHis; made in house; host or cells: Pichia methanolica (Pichia Methanolica Expression kit, Invitrogen)
T1 sequence (Q9FNB0 50-1381): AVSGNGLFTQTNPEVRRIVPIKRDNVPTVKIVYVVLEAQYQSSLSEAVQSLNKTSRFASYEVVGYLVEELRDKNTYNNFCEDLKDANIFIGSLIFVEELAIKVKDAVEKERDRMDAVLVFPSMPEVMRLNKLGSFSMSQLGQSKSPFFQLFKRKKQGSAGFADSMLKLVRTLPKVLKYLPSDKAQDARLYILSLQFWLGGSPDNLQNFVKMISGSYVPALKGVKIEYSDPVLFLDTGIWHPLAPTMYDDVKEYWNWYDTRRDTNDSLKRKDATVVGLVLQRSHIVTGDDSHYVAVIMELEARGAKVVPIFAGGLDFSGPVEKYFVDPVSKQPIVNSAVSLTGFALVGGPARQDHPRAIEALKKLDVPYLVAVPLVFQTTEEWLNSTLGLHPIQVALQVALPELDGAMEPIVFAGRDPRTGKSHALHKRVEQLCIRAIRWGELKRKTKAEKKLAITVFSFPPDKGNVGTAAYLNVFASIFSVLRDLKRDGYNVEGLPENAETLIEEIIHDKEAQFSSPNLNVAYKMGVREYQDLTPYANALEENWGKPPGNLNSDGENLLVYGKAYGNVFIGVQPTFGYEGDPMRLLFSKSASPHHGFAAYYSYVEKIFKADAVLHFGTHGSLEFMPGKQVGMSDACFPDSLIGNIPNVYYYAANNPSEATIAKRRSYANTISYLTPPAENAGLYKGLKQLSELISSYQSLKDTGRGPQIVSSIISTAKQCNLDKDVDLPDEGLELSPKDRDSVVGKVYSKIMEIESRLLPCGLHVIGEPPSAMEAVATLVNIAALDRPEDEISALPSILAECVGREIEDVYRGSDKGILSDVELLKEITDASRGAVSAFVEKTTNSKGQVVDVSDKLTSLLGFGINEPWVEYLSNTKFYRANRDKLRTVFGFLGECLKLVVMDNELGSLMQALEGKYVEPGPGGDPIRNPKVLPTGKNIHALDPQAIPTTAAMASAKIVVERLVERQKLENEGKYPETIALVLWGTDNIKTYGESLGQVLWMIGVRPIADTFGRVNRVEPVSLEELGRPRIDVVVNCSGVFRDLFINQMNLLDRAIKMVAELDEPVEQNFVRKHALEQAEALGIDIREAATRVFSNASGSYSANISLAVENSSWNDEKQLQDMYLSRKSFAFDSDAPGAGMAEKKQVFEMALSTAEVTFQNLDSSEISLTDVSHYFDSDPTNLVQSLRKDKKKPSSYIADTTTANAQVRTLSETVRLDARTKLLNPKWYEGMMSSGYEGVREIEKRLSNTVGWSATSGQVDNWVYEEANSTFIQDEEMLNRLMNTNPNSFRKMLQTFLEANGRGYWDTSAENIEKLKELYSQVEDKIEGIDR
Method: Full-length ABAR/CHLH coding sequence was PCR-amplified with forward primer 5′-[…]-3′ (SEQ ID NO:30) and reverse primer 5′-[…]-3′ (SEQ ID NO:31). The recombinant ABAR/CHLH was expressed in yeast as a fusion protein with a 6×His (SEQ ID NO:32) tag by using Pichia Methanolica Expression kit (Invitrogen) and the fusion protein was affinity-purified according to manufacturer's instructions.
The ABA-binding activity of ABAR was assayed according to the previously described procedures (Zhang, D. P. et al., Plant physiol. 128:714-725 (2002)) with modifications. The binding medium (medium A) contained 50 mM Tris-HCl (pH 7.0), 2 mM MgCl2, 1 mM CaCl2, and 250 mM mannitol. The medium for extracting the Arabidopsis natural ABAR/CHLH protein (medium B) was the medium A supplemented with 2 mM 1,4-dithiothreitol (DTT), 1 mM phenylmethyl sulfonyl fluoride (PMSF), […] leupeptin, and […] pepstin A but minus 250 mM mannitol. [^3H](+)ABA (American Radiolabeled Chemicals, 2.37×10^12 Bq mmol^−1, purity 98.4%) at 30 nM, or at a step gradient of concentrations from 0 to 70 nM (when analyzing ABA binding kinetics, see FIG. 1a, d1), together with 2 μg purified yeast-expressed ABAR/CHLH protein or 50 μg proteins of the crude extracts from two-week-old Arabidopsis seedlings, was added into the medium A. The total volume for the binding assays was adjusted to 200 μl. The mixtures were incubated at 25° C. for 30 min, and then quickly placed on ice. Following the addition of 100 μl 0.5% (w/v) Dextran T70-coated charcoal (DCC) to remove the free [^3H]ABA by adsorption, the mixtures were maintained on ice for 5 min, and then centrifuged to remove DCC before the radioactivity in the supernatant was counted. The specific binding was determined by the difference between the radioactivity bound to the immuno-purified ABAR protein or crude extracts of Arabidopsis seedlings incubated only with [^3H]ABA (total binding) and radioactivity bound in the presence of 1,000-fold molar excess of unlabeled (+)-ABA (Sigma; non-specific binding. Non-specific binding in all the assays was lower than 10% of the total binding, see FIG. 1a, d1). The unlabeled ABA was added into the incubation medium at the same time with [^3H]ABA. The ABA-binding activity of the crude ABA-binding protein from Arabidopsis seedling was expressed as the number of nanomoles of [^3H]ABA specifically bound per gram of protein, and that of the immuno-purified ABAR protein as the number of moles of [^3H]ABA per mole of protein. The stereo-specificity of the ABA-binding was assayed as described previously (Zhang, D. P. et al., Plant physiol. 128:714-725 (2002)). […] The conditions of incubation were the same as described above (the incubation medium containing 30 nM [^3H]ABA), and the two ABA isomers and (+)-ABA were assayed in the concentrations ranging from 1 to 1000-fold molar excess of [^3H]ABA.

gl1 seedlings = assay: Effects of ABA in vivo on chlorophyll, porphyrins and ABAR/CHLH protein; parameters: species or system Arabidopsis thaliana; settings: exogenous ABA treatment, 10 d
Method: The contents of chlorophyll, protoporphyrin IX and Mg-protoporphyrin IX were assayed essentially by the previously described procedures (Mochizuki, N. et al., Proc. Natl. Acad. Sci. USA 98:2053-2058 (2001)).
For the effects of ABA in vivo, the seeds of the ecotype gl1 were germinated after stratification on common MS medium and 48 h later transferred to MS medium supplemented with different concentrations of ABA. 10 d later, the contents of chlorophyll and porphyrins including of protoporphyrin IX and Mg-protoporphyrin IX were measured. At the same time total proteins were extracted from leaves for testing the amounts of ABAR/CHLH protein by immunoblotting.

**Q.** With `CC1=CC(=O)CC(C)(C)C1(O)/C=C/C(C)=C\C(=O)O` (stereo not drawn) [ABA, abscisic acid] as the molecule, how does the Kd [1] read?
**A.** The Kd was 32 nM.

**Q.** What about the “maximum binding (Bmax)” value ([1]; pure yeast-expressed ABAR, Scatchard plot) of the same molecule?
**A.** Its value is 1.28 mol ABA per mol of protein.

**Q.** What about the MgProto contents (gl1 seedlings) of the same molecule?
**A.** The MgProto contents was “enhances”.

**Q.** And the Proto contents (gl1 seedlings)?
**A.** Its Proto contents is “significantly decreased; also recorded: decreases”.

**Q.** What about the chlorophyll contents (gl1 seedlings) of the same molecule?
**A.** Its chlorophyll contents is “significantly decreased; also recorded: decreases”.

**Q.** And the “ABAR expression (protein levels)” value (gl1 seedlings; immunoblotting)?
**A.** Its value is “stimulated; also recorded: enhances”.
